From patent US12433899B2, “Therapeutics and method for treating osteoarthritis” (Calosyn Pharma Inc., priority 2021, dated 2025) come the findings set out here.

For the assay, the system named is medial meniscal tear-induced cartilage degeneration. As to the kind of experiment: Rat medial meniscal tear model, knee histopathology after intra-articular dosing. The class given is in vivo, Male Lewis rats. The conditions noted are these: IA 3 μg (each) Q4D days 4, 8, 12, 16, 20, 24; vs Q4D vehicle controls.

Experimental: This model is performed by transection of the medial collateral ligament just below its attachment to the meniscus so that when the joint space opens, the meniscus is reflected toward the femur. The meniscus is cut at its narrowest point (away from the ossicles) taking care not to damage the tibial surface and making sure that the resulting transection produces separate, freely movable anterior and posterior meniscus halves.
Experimental Design: Animals were anesthetized with Isoflurane and the right knee area was prepared for surgery. A skin incision was made over the medial aspect of the knee and the medial collateral ligament was exposed by blunt dissection, and then transected. The medial meniscus was cut through the full thickness to simulate a complete tear. Skin and subcutis were closed with 4-0 Vicryl suture. Dosing by the intra-articular (IA) route began four days after surgery and continued as indicated below until day 24. Treatment groups were as follows: […]
All three sections of each knee were analyzed microscopically. In scoring the three sections, the worst-case scenario for the two halves on each slide was determined for general cartilage degeneration, proteoglycan loss, collagen damage, and osteophyte formation. […] When zones are scored individually, scores are assigned based on % area of the zone affected. […]

As to `COc1ccc([C@@H]2Sc3ccccc3N(CCN(C)C)C(=O)[C@@H]2OC(C)=O)cc1` [Diltiazem, 5-[2-(dimethylamino)ethyl]-2-(4-methoxyphenyl)-4-oxo-2,3,4,5-tetrahydro-1,5-benzothiazepin-3-yl acetate], the “decrease in the total joint score” value was 6%.
